Results taken from patent US9499550B2 (BRISTOL-MYERS SQUIBB COMPANY, priority 2012, dated 2016).
Read-outs that look alike come from different tables or passages of the source.

Experiments:
[1] = test system: HCV genotype 1a (H77 strain) replicon in HUH-7 cells; assay: HCV replicon luciferase reporter assay, genotype 1a; format: cell-based; details: Hepatitis C virus, Huh-7, 72 h, 3 days incubation
In short: (§1)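 Replicon inhibition for both genotypes was measured as Renilla luciferase signal (EnduRen, 7.5 μM final, 2 h) after 3-day, 37° C exposure of replicon-bearing HUH-7 cells in 4% FCS DMEM, 0.5% DMSO. The 1b construct carries S1179I; the 1a H77 construct carries P1496L and S2204I. Twenty-point, 3-fold dilutions were fitted four-parametrically for EC50, and CC50 was taken from multiplexed Cell Titer-Blue.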

[2] = test system: HCV genotype 1b (Con1) replicon in HUH-7 cells; assay: HCV replicon luciferase reporter assay, genotype 1b; format: cell-based; details: Hepatitis C virus, Huh-7, 72 h, 3 days incubation
In short: as §1

[3] = HCV genotype 1a replicon luciferase, read-out: LE_1a (EC50, range)
[4] = HCV genotype 1b replicon luciferase, read-out: LE_1b (EC50, range)
[5] = HCV genotype 1a replicon luciferase assay, range class, read-out: LE_1a (EC50, range)
[6] = HCV genotype 1b replicon luciferase assay, range class, read-out: LE_1b (EC50, range)
[7] = GETYPE1A, HCV genotype 1a replicon luciferase, read-out: LE_1a (EC50, range)
[8] = GETYPE1B, HCV genotype 1b replicon luciferase, read-out: LE_1b (EC50, range)

| Structure (SMILES) | EC50 [1, 3] | EC50 [2, 4] | EC50 [1, 5] | EC50 [2, 6] | EC50 [1, 7] | EC50 [2, 8] | other results |
| --- | --- | --- | --- | --- | --- | --- | --- |
| CCOc1cc2cc(OC)ccc2c(O[C@@H]2C[C@H]3C(=O)N[C@]4(C(=O)NS(=O)(=O)C5(C)CC5)C[C@H]4/C=C\CC[C@H](C)C[C@@H](C)[C@H](NC(=O)OC(C)(C)C)C(=O)N3C2)n1 [Compound 3193, tert-butyl ((2R,6S,7R,9S,13aS,14aR,16aS,Z)-2-((3-ethoxy-6-methoxyisoquinolin-1-yl)oxy)-7,9-dimethyl-14a-(((1-methylcyclopropyl)sulfonyl)carbamoyl)-5,16-dioxo-1,2,3,5,6,7,8,9,10,11,13a,14,14a,15,16,16a-hexadecahydrocyclopropa[e]pyrrolo[1,2-a][1,4]diazacyclopentadecin-6-yl)carbamate] | 1.01 to 5 nM | 0.51 to 1 nM |  |  |  |  |  |
| COc1nnc(O[C@@H]2C[C@H]3C(=O)N[C@]4(C(=O)NS(=O)(=O)C5CC5)C[C@H]4/C=C\CC[C@@H](C)C[C@@H](C)[C@H](NC(=O)OC(C)(C)C)C(=O)N3C2)c2ccccc12 [Compound 5004, tert-butyl ((2R,6S,7R,9R,13aS,14aR,16aS,Z)-14a-((cyclopropylsulfonyl)carbamoyl)-2-((4-methoxyphthalazin-1-yl)oxy)-7,9-dimethyl-5,16-dioxo-1,2,3,5,6,7,8,9,10,11,13a,14,14a,15,16,16a-hexadecahydrocyclopropa[e]pyrrolo[1,2-a][1,4]diazacyclopentadecin-6-yl)carbamate] | < 5.46 nM | < 5.46 nM |  |  |  |  |  |
| CC[C@@H]1C[C@H](C)CC/C=C\[C@@H]2C[C@@]2(C(=O)NS(=O)(=O)C2(C)CC2)NC(=O)[C@@H]2C[C@@H](Oc3nccc4cc(OC)c(Cl)cc34)CN2C(=O)[C@H]1NC(=O)OC(C)(C)C(C)(F)F [Compound 3224, 3,3-difluoro-2-methylbutan-2-yl((2R,6S,7R,9R,13aS,14aR,16aS,Z)-2-((7-chloro-6-methoxyisoquinolin-1-yl)oxy)-7-ethyl-9-methyl-14a-(((1-methylcyclopropyl)sulfonyl)carbamoyl)-5,16-dioxo-1,2,3,5,6,7,8,9,10,11,13a,14,14a,15,16,16a-hexadecahydrocyclopropa[e]pyrrolo[1,2-a][1,4]diazacyclopentadecin-6-yl)carbamate] | 1.01 to 5 nM | 1.01 to 5 nM |  |  |  |  |  |
| COc1ccc2c(O[C@@H]3C[C@H]4C(=O)N[C@]5(C(=O)NS(=O)(=O)C6CC6)C[C@H]5/C=C\CC[C@@H](C)C[C@@H](C)[C@H](NC(=O)O[C@H](C)C(F)(F)F)C(=O)N4C3)nc(N3CCOCC3)cc2c1 [Compound 3103, (R)-1,1,1-trifluoropropan-2-yl ((2R,6S,7R,9R,13aS,14aR,16aS,Z)-14a-((cyclopropylsulfonyl)carbamoyl)-2-((6-methoxy-3-morpholinoisoquinolin-1-yl)oxy)-7,9-dimethyl-5,16-dioxo-1,2,3,5,6,7,8,9,10,11,13a,14,14a,15,16,16a-hexadecahydrocyclopropa[e]pyrrolo[1,2-a][1,4]diazacyclopentadecin-6-yl)carbamate] |  |  | < 5.46 nM | < 5.46 nM |  |  |  |
| CC[C@@H]1C[C@H](C)CC/C=C\[C@@H]2C[C@@]2(C(=O)NS(=O)(=O)C2(C)CC2)NC(=O)[C@@H]2C[C@@H](Oc3ncc(N4CCN(S(C)(=O)=O)CC4)c4cc(OC)ccc34)CN2C(=O)[C@H]1NC(=O)OC(C)(C)C(F)(F)F [Compound 4254] |  |  |  |  | 1.01 to 5 nM | 0.51 to 1 nM |  |
| CCCOc1cc2c(Cl)cccc2c(O[C@@H]2C[C@H]3C(=O)N[C@]4(C(=O)NS(=O)(=O)C5(C)CC5)C[C@H]4/C=C\CC[C@@H](C)C[C@@H](C)[C@H](NC(=O)OC4C[C@@H]5C[C@H]5C4)C(=O)N3C2)n1 [Compound 1088, (1S,5S)-bicyclo[3.1.0]hexan-3-yl((2R,6S,7R,9R,13aS,14aR,16aS,Z)-2-((5-chloro-3-propoxyisoquinolin-1-yl)oxy)-7,9-dimethyl-14a-(((1-methylcyclopropyl)sulfonyl)carbamoyl)-5,16-dioxo-1,2,3,5,6,7,8,9,10,11,13a,14,14a,15,16,16a-hexadecahydrocyclopropa[e]pyrrolo[1,2-a][1,4]diazacyclopentadecin-6-yl)carbamate] |  |  | < 5.46 nM | < 5.46 nM |  |  |  |
| COc1cc2ccnc(O[C@@H]3C[C@H]4C(=O)N[C@]5(C(=O)NS(=O)(=O)C6(CF)CC6)C[C@H]5/C=C\CC[C@@H](C)C[C@@H](C)[C@H](NC(=O)OC(C)(C)C(F)(F)F)C(=O)N4C3)c2cc1F [Compound 4161] |  |  |  |  | < 5.46 nM | < 5.46 nM |  |
| CC[C@@H]1C[C@H](C)CC/C=C\[C@@H]2C[C@@]2(C(=O)NS(=O)(=O)C2CC2)NC(=O)[C@@H]2C[C@@H](Oc3cnnc4cc(OC)ccc34)CN2C(=O)[C@H]1NC(=O)OC(C)(C)C(F)(F)F [Compound 4327] |  |  |  |  | 5.01 to 35 nM | 5.01 to 35 nM |  |
| COc1cc(F)cc2c(O[C@@H]3C[C@H]4C(=O)N[C@]5(C(=O)NS(=O)(=O)C6(CF)CC6)C[C@H]5/C=C\CC[C@@H](C)C[C@@H](C)[C@H](NC(=O)O[C@H](C)C(F)(F)F)C(=O)N4C3)nccc12 [Compound 3178, (R)-1,1,1-trifluoropropan-2-yl ((2R,6S,7R,9R,13aS,14aR,16aS,Z)-2-((7-fluoro-5-methoxyisoquinolin-1-yl)oxy)-14a-(((1-(fluoromethyl)cyclopropyl)sulfonyl)carbamoyl)-7,9-dimethyl-5,16-dioxo-1,2,3,5,6,7,8,9,10,11,13a,14,14a,15,16,16a-hexadecahydrocyclopropa[e]pyrrolo[1,2-a][1,4]diazacyclopentadecin-6-yl)carbamate] |  |  | < 5.46 nM | < 5.46 nM |  |  | EC50 ([1]; HCV genotype 1a replicon luciferase assay, read-out: LE_1a (EC50)): 3.16 nM; EC50 ([2]; HCV genotype 1b replicon luciferase assay, read-out: LE_1b (EC50)): 0.61 nM |
| CC[C@@H]1C[C@H](C)CC/C=C\[C@@H]2C[C@@]2(C(=O)NS(=O)(=O)C2(C)CC2)NC(=O)[C@@H]2C[C@@H](Oc3nc4c(c5ccccc35)CCCO4)CN2C(=O)[C@H]1NC(=O)OC(C)(C)C(F)(F)F [Compound 6054, 1,1,1-trifluoro-2-methylpropan-2-yl((2R,6S,7R,9R,13aS,14aR,16aS,Z)-2-((2,3-dihydro-1H-pyrano[2,3-c]isoquinolin-6-yl)oxy)-7-ethyl-9-methyl-14a-(((1-methylcyclopropyl)sulfonyl)carbamoyl)-5,16-dioxo-1,2,3,5,6,7,8,9,10,11,13a,14,14a,15,16,16a-hexadecahydrocyclopropa[e]pyrrolo[1,2-a][1,4]diazacyclopentadecin-6-yl)carbamate] | 1.01 to 5 nM | 0.1 to 0.5 nM |  |  |  |  |  |
| COCCOc1cnc(O[C@@H]2C[C@H]3C(=O)N[C@]4(C(=O)NS(=O)(=O)C5CC5)C[C@H]4/C=C\CC[C@@H](C)C[C@@H](C)[C@H](NC(=O)OC4C[C@@H]5C[C@H]5C4)C(=O)N3C2)c2ccccc12 [Compound 1040, (1S,5S)-bicyclo[3.1.0]hexan-3-yl((2R,6S,7R,9R,13aS,14aR,16aS,Z)-14a-((cyclopropylsulfonyl)carbamoyl)-2-((4-(2-methoxyethoxyl)isoquinolin-1-yl)oxy)-7,9-dimethyl-5,16-dioxo-1,2,3,5,6,7,8,9,10,11,13a,14,14a,15,16,16a-hexadecahydrocyclopropa[e]pyrrolo[1,2-a][1,4]diazacyclopentadecin-6-yl)carbamate] |  |  | < 5.46 nM | < 5.46 nM |  |  |  |
| COc1cnc(O[C@@H]2C[C@H]3C(=O)N[C@]4(C(=O)NS(=O)(=O)C5CC5)C[C@H]4/C=C\CC[C@H](C)C[C@@H](C)[C@H](NC(=O)OC(C)(C)C)C(=O)N3C2)c2cc(Cl)ccc12 [Compound 1160, tert-butyl ((2R,6S,7R,9S,13aS,14aR,16aS,Z)-2-((7-chloro-4-methoxyisoquinolin-1-yl)oxy)-14a-((cyclopropylsulfonyl)carbamoyl)-7,9-dimethyl-5,16-dioxo-1,2,3,5,6,7,8,9,10,11,13a,14,14a,15,16,16a-hexadecahydrocyclopropa[e]pyrrolo[1,2-a][1,4]diazacyclopentadecin-6-yl)carbamate] |  |  | 4.82 to 103 nM | < 5.46 nM |  |  |  |
| COc1ccc2c(O[C@@H]3C[C@H]4C(=O)N[C@]5(C(=O)NS(=O)(=O)C6(C)CC6)C[C@H]5/C=C\CC[C@@H](C)C[C@@H](C)[C@H](NC(=O)OC(C)(C)C(F)(F)F)C(=O)N4C3)cc(OC)nc2c1 [Compound 1213] |  |  |  |  | 1.01 to 5 nM | 0.51 to 1 nM |  |
| COc1cc2ccnc(O[C@@H]3C[C@H]4C(=O)N[C@]5(C(=O)NS(=O)(=O)C6(C)CC6)C[C@H]5/C=C\CC[C@@H](C)C[C@@H](C)[C@H](NC(=O)OC(C)(C)C(C)(F)F)C(=O)N4C3)c2cc1OC [Compound 5377, 3,3-difluoro-2-methylbutan-2-yl((2R,6S,7R,9R,13aS,14aR,16aS,Z)-2-((6,7-dimethoxyisoquinolin-1-yl)oxy)-7,9-dimethyl-14a-(((1-methylcyclopropyl)sulfonyl)carbamoyl)-5,16-dioxo-1,2,3,5,6,7,8,9,10,11,13a,14,14a,15,16,16a-hexadecahydrocyclopropa[e]pyrrolo[1,2-a][1,4]diazacyclopentadecin-6-yl)carbamate] | 1.01 to 5 nM | 1.01 to 5 nM |  |  |  |  |  |
| COc1ccc2c(O[C@@H]3C[C@H]4C(=O)N[C@]5(C(=O)NS(=O)(=O)C6(C)CC6)C[C@H]5/C=C\CC[C@@H](C)C[C@@H](C)[C@H](NC(=O)OC(C)(C)C(F)(F)F)C(=O)N4C3)ncc(OC)c2c1 [Compound 4081] |  |  |  |  | < 5.46 nM | < 5.46 nM |  |
